# According to PMC4480820, “Modafinil and its metabolites enhance the anticonvulsant action of classical antiepileptic drugs in the mouse maximal electroshock-induced seizure model” (Psychopharmacology, 2015):
# Where two headings read alike, the source gives them in different places.
# Legend:
# [1] = system: passive avoidance performance in mice; assay: Step-through passive avoidance task; format: in vivo, Swiss mice; conditions: median (25th; 75th percentiles), observed up to 180 s
# Description: The effects of combinations of modafinil (50 mg kg^−1), its metabolites (50 mg kg^−1), or GBR 12909 (25 mg kg^−1) with different classical AEDs were quantified by the step-through passive avoidance task of Venault et al. ([1986]). AEDs were administered at doses corresponding to their ED50 values from the MES test. Each animal received an AED either alone or in combination either with modafinil, sulfone, and acid metabolites or with GBR 12909 on the first day before training. The time before commencement of the training session (after drug administration) in the step-through passive avoidance task was identical to that for the MES test. Subsequently, the animals were placed in an illuminated box (10 × 13 × 15 cm) connected to a larger dark box (25 × 20 × 15 cm) equipped with an electric grid floor. Entrance of the animals to the dark box was punished by an adequate electric footshock (0.6 mA for 2 s). […] On the following day (24 h later), the pretrained animals were placed again into the illuminated box and observed for up to 180 s. Mice that avoided the dark compartment for 180 s were considered as having remembered the task. The time the mice took to enter the dark box was noted, and the median latencies (retention times) with 25th and 75th percentiles were calculated.
# [2] = system: skeletal muscular strength in mice; assay: Grip strength test; format: in vivo, Swiss mice; conditions: mean ± S.E.M.
# Description: The effects of combinations of modafinil (50 mg kg^−1), sulfone and acid metabolites (50 mg kg^−1), or GBR 12909 (25 mg kg^−1) with different classical AEDs at doses corresponding to their ED50 values from the MES test on skeletal muscular strength in mice were quantified by the grip strength test of Meyer et al. ([1979]). The grip strength apparatus (BioSeb, Chaville, France) comprised a wire grid (8 × 8 cm) connected to an isometric force transducer (dynamometer). The mice were lifted by the tails so that their forepaws could grasp the grid. The mice were then gently pulled backward by the tail until the grid was released. The maximal force exerted by the mouse before losing grip was recorded. The mean of three measurements for each animal was calculated, and subsequently, the mean maximal force of eight animals per group was determined. The muscular strength in mice is expressed in N (newtons) as the means ± S.E.M. of at least eight determinations.
# [3] = system: motor coordination in mice; assay: Chimney test; format: in vivo, Swiss mice; conditions: n = 8 mice/group
# Source text: The chimney test of Boissier et al. ([1960]) was used to quantify the adverse effect potential of classical AEDs administered in combination with modafinil, its metabolites, or GBR 12909. In this test, the animals had to climb backwards up a plastic tube (3-cm inner diameter, 30 cm long), and impairment of motor performance was indicated by the inability of the mice to climb backward up the transparent tube within 60 s.
# [4] = system: MES-induced seizures in mice; set-up: method as in Chatterjie et al. [2004]; conditions: 300 mg kg^−1 i.p., ref Chatterjie et al. [2004], cited from earlier work; for Protection against MES-induced seizures: administered alone
# [5] = system: threshold for electroconvulsions in mice; assay: Maximal electroshock seizure threshold (MEST) test; conditions: for TID20 (dose that increases threshold by 20 %): i.p., 30 min before test, from linear regression of dose vs threshold increase
# [6] = system: MES-induced seizures in mice; assay: Maximal electroshock seizure (MES) test, AEDs alone and in combination; format: in vivo, Swiss mice; conditions: AED + vehicle (alone), i.p., 25 mA, ± S.E.M.
# Description: The stimulus duration was 0.2 s.
# These parameters of stimulation (maximal electroshock) typically result in all mice responding with tonic hind limb extension immediately after stimulation. The AEDs administered alone and their combination with modafinil, its metabolites, or GBR 12909 were tested for their ability to increase the number of animals not responding with tonus (i.e., protected from tonic hind limb extension) after stimulation. […] After constructing a dose-effect curve (i.e., dose in mg kg^−1 vs percentage of mice protected), the protective median effective dose (ED50) value of the AED tested was calculated according to a log-probit method by Litchfield and Wilcoxon ([1949]). […] Modafinil, its two metabolites, and GBR 12909 were tested for their ability to affect the anticonvulsive potency of AEDs.
# [7] = Total brain antiepileptic drug concentrations (fluorescence polarization immunoassay); conditions: AED + vehicle, mean ± S.E.M., n = 8
# Description: The whole brains of mice were removed from the skulls, weighed, harvested, and homogenized using Abbott buffer (1:2 weight/volume; Abbott Laboratories, North Chicago, IL, USA) in an Ultra-Turrax T8 homogenizer. The homogenates were then centrifuged at 10,000 g for 10 min, and the supernatant samples of 100 μl were collected and then analyzed for AED content. Total brain concentrations of CBZ, PB, PHT, and VPA were measured by a fluorescence polarization immunoassay using an analyzer (Abbott TDx) and manufacturer-supplied reagent kits (Abbott Laboratories, North Chicago, IL, USA). Total brain AED concentrations are expressed in μg g^−1 of wet brain tissue as means ± standard error of the mean (S.E.M.) of at least eight separate brain preparations.
# [8] = system: locomotor activation in mice; set-up: method as in Paterson et al. [2010]; conditions: ref Paterson et al. [2010]; cited from earlier work
# [9] = system: electroconvulsions in mice; set-up: method as in Chen et al. [2007]; conditions: ref Chen et al. [2007], cited from earlier work
# CYP3A4/5 = conditions: human liver microsomes; ref Robertson and Hellriegel [2003]; cited from earlier work
# CYP2C9 = conditions: human hepatocytes; ref Robertson and Hellriegel [2003]; cited from earlier work
# [10] = compound alone 50 mg kg^−1 i.p. + vehicle
# [11] = control of GBR series (Table 5)
# [12] = control of MOD, SULF and ACID series (Tables 2-4)
# [13] = i.p.: CBZ 4.3, PB 13.0, PHT 5.4, VPA 245.3 mg kg^−1 (control of MOD)
# [14] = i.p.: CBZ 5.7, PB 14.0, PHT 6.0, VPA 226.4 mg kg^−1 (control of SULF)
# [15] = i.p.: CBZ 6.4, PB 14.4, PHT 6.3, VPA 241.6 mg kg^−1 (control of ACID)
# [16] = i.p.: CBZ 11.2, PB 15.4, PHT 7.0, VPA 211.4 mg kg^−1 (control of GBR)
# [17] = GBR alone 25 mg kg^−1 i.p. + vehicle
compound,measurement,setting,value
"O=C(O)CSC(c1ccccc1)c1ccccc1 [ACID, diphenylmethylthioacetic acid]",Retention time,[1]; [10],180 (133.5; 180) s
same,Grip strength,[2]; [10],0.961 ± 0.050 N
same,Motor coordination impairment (number of animals showing impairment in the chimney test),[3]; [10],0/8
same,Toxicity at the dose tested in the MES test,[4],toxic
same,TI (percentage of threshold increase over vehicle control),[5]; 12.5 mg kg^−1 i.p.,12.83%
same,TI (percentage of threshold increase over vehicle control),[5]; 25 mg kg^−1 i.p.,22.32%
same,TI (percentage of threshold increase over vehicle control),[5]; 50 mg kg^−1 i.p.,34.80%
same,TI (percentage of threshold increase over vehicle control),[5]; 75 mg kg^−1 i.p.,57.82%
same,TID20 (dose that increases threshold by 20 %),[5],23.47 mg/kg
"NC(=O)N1c2ccccc2C=Cc2ccccc21 [CBZ, carbamazepine]",ED50 of the AED (protecting 50 % of animals against MES-induced hind limb extension),[6]; [11],15.53 ± 1.04 mg/kg
same,ED50 of the AED (protecting 50 % of animals against MES-induced hind limb extension),[6]; [12],11.23 ± 1.20 mg/kg
same,Brain concentration of the AED,[7]; [13],2.41 ± 0.48 μg g^−1 of wet brain tissue
same,Brain concentration of the AED,[7]; [14],3.76 ± 0.35 μg g^−1 of wet brain tissue
same,Brain concentration of the AED,[7]; [15],4.46 ± 0.31 μg g^−1 of wet brain tissue
same,Brain concentration of the AED,[7]; [16],6.66 ± 0.42 μg g^−1 of wet brain tissue
Fc1ccc(C(OCCN2CCN(CCCc3ccccc3)CC2)c2ccc(F)cc2)cc1 [GBR],Retention time,[1]; [17],180 (133.5; 180) s
same,Grip strength,[2]; [17],0.937 ± 0.042 N
same,Motor coordination impairment (number of animals showing impairment in the chimney test),[3]; [17],1/8
same,Dose eliciting equivalent locomotor activation,[8],15 mg/kg
same,TI (percentage of threshold increase over vehicle control),[5]; 6.25 mg kg^−1 i.p.,11.25%
same,TI (percentage of threshold increase over vehicle control),[5]; 12.5 mg kg^−1 i.p.,19.18%
same,TI (percentage of threshold increase over vehicle control),[5]; 25 mg kg^−1 i.p.,25.67%
same,TI (percentage of threshold increase over vehicle control),[5]; 50 mg kg^−1 i.p.,44.53%
same,TID20 (dose that increases threshold by 20 %),[5],16.37 mg/kg
"NC(=O)C[S+]([O-])C(c1ccccc1)c1ccccc1 (stereo not shown) [MOD, diphenylmethylsulfinylacetamide]",Retention time,[1]; [10],180 (123.5; 180) s
same,Grip strength,[2]; [10],0.908 ± 0.053 N
same,Motor coordination impairment (number of animals showing impairment in the chimney test),[3]; [10],0/8
same,Protection against MES-induced seizures,[4],100%
same,Mice protected against electroconvulsions,[9]; 22.5 mg kg^−1 i.p.,50%
same,Mice protected against electroconvulsions,[9]; 45 mg kg^−1 i.p.,70%
same,Mice protected against electroconvulsions,[9]; 90 mg kg^−1 i.p.,90%
same,Mice protected against electroconvulsions,[9]; 180 mg kg^−1 i.p.,70%
same,Dose eliciting equivalent locomotor activation,[8],150 mg/kg
same,Inhibition of CYP3A4/5,CYP3A4/5,weak inhibition
same,Inhibition of CYP2C9,CYP2C9,inhibit
same,TI (percentage of threshold increase over vehicle control),[5]; 12.5 mg kg^−1 i.p.,−2.78%
same,TI (percentage of threshold increase over vehicle control),[5]; 25 mg kg^−1 i.p.,2.78%
same,TI (percentage of threshold increase over vehicle control),[5]; 50 mg kg^−1 i.p.,22.88%
same,TI (percentage of threshold increase over vehicle control),[5]; 75 mg kg^−1 i.p.,35.46%
same,TID20 (dose that increases threshold by 20 %),[5],49.12 mg/kg
"CCC1(c2ccccc2)C(=O)NC(=O)NC1=O [PB, phenobarbital]",ED50 of the AED (protecting 50 % of animals against MES-induced hind limb extension),[6]; [11],26.90 ± 2.15 mg/kg
same,ED50 of the AED (protecting 50 % of animals against MES-induced hind limb extension),[6]; [12],20.80 ± 3.12 mg/kg
same,Brain concentration of the AED,[7]; [13],23.56 ± 1.10 μg g^−1 of wet brain tissue
same,Brain concentration of the AED,[7]; [14],23.71 ± 0.86 μg g^−1 of wet brain tissue
same,Brain concentration of the AED,[7]; [15],25.46 ± 0.84 μg g^−1 of wet brain tissue
same,Brain concentration of the AED,[7]; [16],24.18 ± 0.70 μg g^−1 of wet brain tissue
"O=C1NC(=O)C(c2ccccc2)(c2ccccc2)N1 [PHT, phenytoin]",ED50 of the AED (protecting 50 % of animals against MES-induced hind limb extension),[6]; [11],12.10 ± 1.20 mg/kg
same,ED50 of the AED (protecting 50 % of animals against MES-induced hind limb extension),[6]; [12],11.00 ± 0.93 mg/kg
same,Brain concentration of the AED,[7]; [13],1.39 ± 0.20 μg g^−1 of wet brain tissue
same,Brain concentration of the AED,[7]; [14],1.65 ± 0.19 μg g^−1 of wet brain tissue
same,Brain concentration of the AED,[7]; [15],1.70 ± 0.15 μg g^−1 of wet brain tissue
same,Brain concentration of the AED,[7]; [16],3.22 ± 0.30 μg g^−1 of wet brain tissue
"NC(=O)CS(=O)(=O)C(c1ccccc1)c1ccccc1 [SULF, diphenylmethylsufonylacetamide]",Retention time,[1]; [10],180 (180; 180) s
same,Grip strength,[2]; [10],0.957 ± 0.058 N
same,Motor coordination impairment (number of animals showing impairment in the chimney test),[3]; [10],0/8
same,Protection against MES-induced seizures,[4],50%
same,TI (percentage of threshold increase over vehicle control),[5]; 12.5 mg kg^−1 i.p.,14.24%
same,TI (percentage of threshold increase over vehicle control),[5]; 25 mg kg^−1 i.p.,21.62%
same,TI (percentage of threshold increase over vehicle control),[5]; 50 mg kg^−1 i.p.,32.34%
same,TI (percentage of threshold increase over vehicle control),[5]; 75 mg kg^−1 i.p.,58.88%
same,TID20 (dose that increases threshold by 20 %),[5],23.57 mg/kg
"CCCC(CCC)C(=O)O [VPA, valproate]",ED50 of the AED (protecting 50 % of animals against MES-induced hind limb extension),[6]; [11],286.7 ± 20.11 mg/kg
same,ED50 of the AED (protecting 50 % of animals against MES-induced hind limb extension),[6]; [12],328.6 ± 13.17 mg/kg
same,Brain concentration of the AED,[7]; [13],299.73 ± 15.09 μg g^−1 of wet brain tissue
same,Brain concentration of the AED,[7]; [14],276.30 ± 11.55 μg g^−1 of wet brain tissue
same,Brain concentration of the AED,[7]; [15],346.98 ± 16.10 μg g^−1 of wet brain tissue
same,Brain concentration of the AED,[7]; [16],173.66 ± 10.36 μg g^−1 of wet brain tissue
